“Also recorded” adds a separate entry of the source. Values belong to the compound of their own block, whether it stands above or below them.
Experiments:
[1] = target: T1, MC1R (Homo sapiens, UniProt Q01726); experiment: Stimulation of cAMP formation in cultured human melanocytes; format: cell-based; parameters: MC1R is expressed on the cell surface of melanocytes; endogenous in cells; host or cells: cultured human melanocytes; conditions: for cAMP compared to 10 nM αMSH: cultured human melanocytes; for potency in stimulating cAMP formation compared to another peptide: in words
Description: Peptides were tested on cultured human melanocytes for their capacity to activate MC1R, as measured by stimulating cAMP formation. After 45 minutes of treatment with different concentrations of peptides, cAMP levels were measured using a I^125-labeled radioimmunoassay kit.
(§1) Peptides were tested as described in Example 4 above on cultured human melanocytes for their capacity to activate MC1R, as measured by stimulating cAMP formation, and for their capacity for stimulating tyrosinase activity, the rate-limiting enzyme for melanin synthesis. The tested peptides were synthesized according to the formula: Ar(CH2)mX^1—X^2—CO—X^3—X^4—X^5-(Trp)n-NX^6R wherein X^1 and X^2 are absent, X^3 is His, X^5 is Arg, and X^6 is H. X^4 amino acids were in the D-stereoisomer form, unless otherwise noted.

[2] = system: tyrosinase activity; experiment: Stimulation of tyrosinase activity in cultured human melanocytes; format: cell-based; conditions: for TA (tyrosinase activity) compared to 10 nM αMSH: cultured human melanocytes; for effect on tyrosinase activity compared to another peptide / concentration at which significant stimulation of tyrosinase activity begins: 6-day treatment; for effect on tyrosinase activity compared to another peptide: in words
Description: Peptides were tested on cultured human melanocytes for their capacity for stimulating tyrosinase activity, the rate-limiting enzyme for melanin synthesis. Melanocytes were treated every other day, for a total of 6 days, with increasing concentrations of peptides. Medium containing H^3-tyrosine, the substrate for tyrosinase, was added to melanocytes 24 hours before the end of the 6-day treatment. Tyrosinase activity was measured by determining the amount of ^3H2O generated as […] is catalyzed by tyrosinase for melanin synthesis.
as §1

[3] = target: T2, hMC3R (Homo sapiens, UniProt P41968); experiment: cAMP stimulation in heterologous cells expressing human MC3R; format: cell-based; conditions: for EC50: cAMP, heterologous cells; for binding of MC3R: in words
T2 construct: expressed in transfected cells
Description: (§2) Receptor selectivity of peptide agonists for hMC1R was determined by stimulation of cAMP in heterologous cells expressing different human melanocortin receptors (MC1R, MC3R, MC4R, and MC5R).

[4] = target: T3, hMC5R (Homo sapiens, UniProt P33032); experiment: cAMP stimulation in heterologous cells expressing human MC5R; format: cell-based; conditions: for EC50: cAMP, heterologous cells; for binding of MC5R: in words
T3 construct: expressed in transfected cells
Description: as §2

[5] = system: UV-irradiated human melanocytes; experiment: Repair of UV-induced cyclobutane pyrimidine dimers (CPD) in human melanocytes; format: cell-based; conditions: for CPD removal at 1 nM compared to 10 nM α-MSH: 1 nM peptide, 48 hours post UV
Description: To investigate the effects of peptides on the repair of UV-induced DNA damage, levels of cyclobutane pyrimidine dimers (CPD), the major form of DNA photoproducts, were measured in UV-irradiated human melanocytes with or without peptide treatment. Melanocytes were pretreated with the peptides for 4 days prior to, and for 48 hours post UV exposure, harvested, immunostained by a specific antibody for CPD, and analyzed by flow cytometry.

[6] = target: T1, MC1R; experiment: cAMP stimulation in heterologous cells expressing human MC1R; format: cell-based; parameters: expressed in transfected cells; conditions: for EC50: cAMP, heterologous cells; for potency in activation of MC1R compared to MT-II: in words
Description: as §2

[7] = target: T4, hMC4R (Homo sapiens, UniProt P32245); experiment: cAMP stimulation in heterologous cells expressing human MC4R; format: cell-based; conditions: for EC50: cAMP, heterologous cells
T4 construct: expressed in transfected cells
Description: as §2

[8] = system: UV-irradiated human melanocytes; experiment: Repair of UV-induced 8-oxodG in human melanocytes; format: cell-based
Description: To investigate the effects of peptides on repair of UV-induced DNA damage, levels of 8-oxodG, a major form of oxidative DNA damage, were measured in UV-irradiated human melanocytes with or without peptide treatment. […] Fluorescence intensity, which correlates with the amount of DNA damage, was quantified using ImagJ software.

[9] = Peptide storage stability by HPLC; format: physicochemical; conditions: lyophilized, open air, room temperature, 4 months
Description: LK-513 (Ph(CH2)3CO-His-(D-4-Bip)-Arg-NHMe) was tested for stability and degradation over a storage period. The peptide was stored in a lyophilized form in open air at room temperature for 4 months. After 4 months, HPLC was performed on a test sample of the peptide in order to measure degradation, using standard methods (FIG. 1). […] Without being bound by theory, it is believed that the enhanced stability is a product of the absence of amide bonds between natural L-L-amino acids in the tripeptides and the existence of only one amide bond between natural amino acids in the tetrapeptides (Arg-Trp). Amide bonds between non-natural D- and natural L-amino acids are less prone to chemical and enzymatic hydrolysis, as evidenced by the FIG. 1. Further, the bulk and hydrophobicity of the X4 amino acid (D-Phe or a bulky hydrophobic analog thereof, such as D-4-Bip in the case of LK-513) shield the polar amid bonds of the peptide from chemical and enzymatic degradation.

[10] = system: human melanocytes; experiment: Potency in human melanocytes; format: cell-based; conditions: in words
Excerpt: Satyanarayanajois S. D., et al., Conformations of end-capped melanocortin agonists RCO-X-Z-Arg-Trp-NH2 by 2D-NMR, CD and computations, Peptides Breaking Away: Proceedings of the Twenty-First American Peptide Association 384 (2009). […] Ruwe A. R. et al., Semi-rigid tripeptide agonists of melanocortin receptors, Bioorg. Med. Chem. Lett. 19(17): 5176-81 (2009). […] Thus, while not desiring to be bound by theory, it is believed that the conformational restraints favorable for longer peptides may be unfavorable for shorter MC1R agonists, including the Formula I and Formula II peptides disclosed herein.

[11] = system: mouse MCRs; conditions: in words; cited from earlier work

T3 sequence (P33032 whole entry): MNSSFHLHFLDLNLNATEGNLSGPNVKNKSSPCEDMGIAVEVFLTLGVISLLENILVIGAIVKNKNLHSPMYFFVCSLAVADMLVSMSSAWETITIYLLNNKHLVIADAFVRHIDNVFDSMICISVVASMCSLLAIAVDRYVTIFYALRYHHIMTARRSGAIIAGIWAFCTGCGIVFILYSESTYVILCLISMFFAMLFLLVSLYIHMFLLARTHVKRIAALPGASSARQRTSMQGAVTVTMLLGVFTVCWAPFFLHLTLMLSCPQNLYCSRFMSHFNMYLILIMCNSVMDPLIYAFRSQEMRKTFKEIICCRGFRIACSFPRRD
T1 sequence (Q01726 whole entry): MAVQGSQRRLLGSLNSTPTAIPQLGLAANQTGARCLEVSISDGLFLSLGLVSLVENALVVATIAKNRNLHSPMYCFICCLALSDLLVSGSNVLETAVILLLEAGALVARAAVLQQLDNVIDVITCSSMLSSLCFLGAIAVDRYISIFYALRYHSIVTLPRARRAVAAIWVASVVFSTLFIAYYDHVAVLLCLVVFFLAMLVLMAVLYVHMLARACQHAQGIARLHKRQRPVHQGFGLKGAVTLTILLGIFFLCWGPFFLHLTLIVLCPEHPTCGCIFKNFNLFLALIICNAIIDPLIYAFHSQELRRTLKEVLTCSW
T4 sequence (P32245 whole entry): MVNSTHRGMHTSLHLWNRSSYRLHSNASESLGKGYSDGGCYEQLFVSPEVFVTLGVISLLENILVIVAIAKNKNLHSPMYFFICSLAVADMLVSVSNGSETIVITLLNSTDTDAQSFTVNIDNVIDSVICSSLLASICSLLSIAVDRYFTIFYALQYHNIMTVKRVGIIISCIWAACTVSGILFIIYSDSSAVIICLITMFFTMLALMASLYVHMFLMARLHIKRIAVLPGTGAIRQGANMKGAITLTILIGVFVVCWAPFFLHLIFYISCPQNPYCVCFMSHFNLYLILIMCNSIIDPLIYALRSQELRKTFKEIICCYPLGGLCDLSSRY
T2 sequence (P41968 whole entry): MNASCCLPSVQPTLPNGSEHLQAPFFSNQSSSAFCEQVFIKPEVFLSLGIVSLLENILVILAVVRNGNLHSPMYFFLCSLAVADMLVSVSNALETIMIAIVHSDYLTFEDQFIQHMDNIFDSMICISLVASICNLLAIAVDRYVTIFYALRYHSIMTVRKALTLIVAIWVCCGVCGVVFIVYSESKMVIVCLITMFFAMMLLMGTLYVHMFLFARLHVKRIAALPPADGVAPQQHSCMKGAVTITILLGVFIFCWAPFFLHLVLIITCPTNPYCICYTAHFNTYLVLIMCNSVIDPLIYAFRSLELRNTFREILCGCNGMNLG

Compound: 3,4-O(CH2)2C6H4CH2CO-His-(D-4-FPhe)-Arg-Trp-NH2 [LK 210P]
- cAMP compared to 10 nM αMSH [1]: ≧

Compound: 4-FC6H4CH2CO-His-(D-4-FPhe)-Arg-Trp-NH2 [LK 205P]
- TA (tyrosinase activity) compared to 10 nM αMSH [2]: ≧
- cAMP compared to 10 nM αMSH [1]: ≦

Compound: Ph(CH2)3CO-His-(D-1-Nal)-Arg-NH2 [LK 510P]
- TA (tyrosinase activity) compared to 10 nM αMSH [2]: NR (NR = No Response/inactive at 10 nM)

Compound: Ph(CH2)3CO-His-(D-1-Nal)-Arg-NHMe [LK 512P]
- TA (tyrosinase activity) compared to 10 nM αMSH [2]: NR (NR = No Response/inactive at 10 nM)

Compound: Ph(CH2)3CO-His-(D-2-Nal)-Arg-NH2 [LK 515P]
- TA (tyrosinase activity) compared to 10 nM αMSH [2]: <<

Compound: Ph(CH2)3CO-His-(D-2-Nal)-Arg-Trp-NH2 [LK 468P]
- cAMP compared to 10 nM αMSH [1]: ≦

Compound: trans-4-HOC6H4CH═CHCO-His-D-Phe-Arg-NH2
- potency in human melanocytes [10]: less potent
- MC1R selectivity and potency at mouse MCRs compared to LK-394 [11]: moderately increased MC1R selectivity and potency

The next lines start with results.

- EC50 [3]: 22.7 nM
- EC50 [4]: 262 nM
- EC50 [6]: 0.19 nM
- concentration giving maximal cAMP ([1]; human melanocytes, 45 minutes of treatment): 10 nM
Compound: N=C(N)NCCC[C@H](NC(=O)[C@@H](Cc1ccccc1)NC(=O)[C@H](Cc1c[nH]cn1)NC(=O)CCCc1ccccc1)C(=O)N[C@@H](Cc1c[nH]c2ccccc12)C(N)=O [LK-184, Ph(CH2)3CO-His-(D-Phe)-Arg-Trp-NH2]
- effect on tyrosinase activity compared to another peptide ([2]; human melanocytes): comparable effects in tyrosinase activity
- CPD removal at 1 nM compared to 10 nM α-MSH [5]: same effect at 1 nM on CPD removal as 10 nM α-MSH

- EC50 [3]: 32.4 nM
- EC50 [7]: 18.1 nM
- potency at hMC4R compared to LK-184 ([7]; in words): about ten times less potent
- EC50 [4]: 122 nM
- potency compared to α-MSH in activating MC1R and stimulating melanogenesis ([2]; human melanocytes, tyrosinase activity): at least 100 times
- EC50 [6]: 0.34 nM
- potency in stimulating cAMP formation compared to another peptide ([1]; human melanocytes): more potent than LK-184
Compound: N=C(N)NCCC[C@H](NC(=O)[C@@H](Cc1cccc2ccccc12)NC(=O)[C@H](Cc1c[nH]cn1)NC(=O)CCCc1ccccc1)C(=O)N[C@@H](Cc1c[nH]c2ccccc12)C(N)=O [LK-467, Ph(CH2)3CO-His-(D-1-Nal)-Arg-Trp-NH2]
- effect on tyrosinase activity compared to another peptide ([2]; human melanocytes): comparable effects in tyrosinase activity
- CPD removal at 1 nM compared to 10 nM α-MSH [5]: same effect at 1 nM on CPD removal as 10 nM α-MSH
- reduction of CPD levels compared to LK-184 ([5]; 48 hours after UV exposure): as effective as LK-184
- reduction of 8-oxodG levels compared to LK-184 ([8]; 24 hours after UV exposure): as effective as LK-184

- EC50 [3]: > 10000 nM
- binding of MC3R [3]: do not bind
- EC50 [7]: > 10000 nM
- binding of MC4R ([7]; in words): do not bind
- EC50 [4]: > 10000 nM
- binding of MC5R [4]: do not bind
- TA (tyrosinase activity) compared to 10 nM αMSH [2]: <
- concentration at which significant stimulation of tyrosinase activity begins ([2]; human melanocytes): 1 nM
- EC50 [6]: 1.46 nM
- potency in activation of MC1R compared to MT-II [6]: about as potent as MT-II
- potency in stimulating cAMP formation compared to another peptide ([1]; human melanocytes): about ten times less potent than α-MSH
Compound: N=C(N)NCCC[C@H](NC(=O)[C@@H](Cc1ccc(-c2ccccc2)cc1)NC(=O)[C@H](Cc1c[nH]cn1)NC(=O)CCCc1ccccc1)C(N)=O [LK-511, Ph(CH2)3CO-His-(D-4-Bip)-Arg-NH2]

- EC50 [3]: > 10000 nM
- binding of MC3R [3]: do not bind
- EC50 [7]: > 10000 nM
- binding of MC4R ([7]; in words): do not bind
- EC50 [4]: > 10000 nM
- binding of MC5R [4]: do not bind
- TA (tyrosinase activity) compared to 10 nM αMSH [2]: <
- concentration at which significant stimulation of tyrosinase activity begins ([2]; human melanocytes): 1 nM
- EC50 [6]: 3.27 nM
- potency in activation of MC1R compared to MT-II [6]: about as potent as MT-II
- potency in stimulating cAMP formation compared to another peptide ([1]; human melanocytes): about ten times less potent than α-MSH
Compound: CNC(=O)[C@H](CCCNC(=N)N)NC(=O)[C@@H](Cc1ccc(-c2ccccc2)cc1)NC(=O)[C@H](Cc1c[nH]cn1)NC(=O)CCCc1ccccc1 [LK-513, Ph(CH2)3CO-His-(D-4-Bip)-Arg-NHMe]
- stability and degradation by HPLC [9]: highly stable and resistant to degradation, showing only a single HPLC peak; also recorded: highly stable and substantially free of degradation

- EC50 [3]: > 10000 nM
- binding of MC3R [3]: do not bind
- EC50 [7]: > 10000 nM
- binding of MC4R ([7]; in words): do not bind
- EC50 [4]: > 10000 nM
- binding of MC5R [4]: do not bind
- TA (tyrosinase activity) compared to 10 nM αMSH [2]: <
- concentration at which significant stimulation of tyrosinase activity begins ([2]; human melanocytes): 1 nM
- effect on tyrosinase activity compared to another peptide ([2]; human melanocytes): the most effective
- EC50 [6]: 3.65 nM
- potency in activation of MC1R compared to MT-II [6]: about as potent as MT-II
Compound: CC(C)(C)c1ccc(C[C@@H](NC(=O)[C@H](Cc2c[nH]cn2)NC(=O)CCCc2ccccc2)C(=O)N[C@@H](CCCNC(=N)N)C(N)=O)cc1 [LK-514, Ph(CH2)3CO-His-(D-4-tBuPhe)-Arg-NH2]
- reduction of 8-oxodG levels at 100 nM compared to 1 nM α-MSH ([8]; 100 nM peptide, 24 hours post UV): greater effect than 1 nM α-MSH
- potency in stimulating cAMP formation compared to another peptide ([1]; human melanocytes): about ten times less potent than α-MSH; also recorded: more potent than LK-511 or 513; also recorded: more potent than LK-511 or LK-513

- TA (tyrosinase activity) compared to 10 nM αMSH [2]: <<<
Compound: Ph(CH2)3CO-His-(D-2-Nal)-Arg-NHMe [LK 517P]

- TA (tyrosinase activity) compared to 10 nM αMSH [2]: <<
Compound: Ph(CH2)3CO-His-(D-4-tBuPhe)-Arg-NHMe [LK 516P]

- effect on tyrosinase activity compared to another peptide ([2]; human melanocytes): equipotent to LK-467
- potency in stimulating cAMP formation compared to another peptide ([1]; human melanocytes): equipotent to LK-467
Compound: Ph(CH2)3CO-His-(D-Phe)-Arg-Trp-NHEt [LK-487]

— patent US9434764B2, “Skin care compositions and methods comprising selective agonists of melanocortin 1 receptor” (University of Cincinnati, priority 2012, dated 2016)
